For 46 molecules, photoluminescence quantum yield results are on record in the Deep4Chem optical property database.

A short description of the data set: photoluminescence quantum yield (fraction); solvent given as SMILES.
[1] abbreviates: in O=P(c1ccccc1)(c1ccccc1)c1ccccc1Oc1ccccc1P(=O)(c1ccccc1)c1ccccc1.

Turning to `CCOC(=O)c1sc(SC)c2c(=O)n(C)nnc12`, the photoluminescence quantum yield by setting is: (in C1CCOC1) 0.016; (in CC#N) 0.029; (in CCO) 0.054; (in CN(C)C=O) 0.013; (in CO) 0.052; (in CS(C)=O) 0.0077.

With `CN(C)c1ccc(C#Cc2cc3ccc4cc(C#Cc5ccc(N(C)C)cc5)cc5ccc(c2)c3c45)cc1`, where the note is “in Cc1ccccc1”, the photoluminescence quantum yield worked out at 0.39.

`C(S/C=C/c1ccc(/C=C/SC=C2CCCCCCC2)cc1)=C1CCCCCCC1`: under “in ClCCl”, the photoluminescence quantum yield was determined as 0.018.

Under “in O”, `Cc1cn(C)c(=O)nc1-n1cncn1` displayed a photoluminescence quantum yield of 0.071.

Consider `CCCCN1c2ccccc2Sc2cc(/C=C\c3cc(=O)oc4cc(C)ccc34)ccc21`, for which the photoluminescence quantum yield (in ClC(Cl)Cl) amounted to 0.21.

The molecule `CC(C)(C)c1ccc(C2=C(c3ccc(-n4c5ccccc5c5ccccc54)cc3)S(=O)(=O)c3c2sc(-c2ccc(-n4c5ccccc5c5ccccc54)cc2)c3-c2ccc(C(C)(C)C)cc2)cc1` had a photoluminescence quantum yield (in C1CCOC1) of 0.056.

In the case of `c1ccc(-c2cc3c(oc4ccccc43)c(-c3ccccc3)[o+]2)cc1`, the photoluminescence quantum yield is 0.18 (in CC#N) and 0.1 (in ClCCCl).

Molecule `CC(C)(C)c1ccc(C2=C(c3ccc(-n4c5ccc(C(C)(C)C)cc5c5cc(C(C)(C)C)ccc54)cc3)S(=O)(=O)c3c2sc(-c2ccc(-n4c5ccc(C(C)(C)C)cc5c5cc(C(C)(C)C)ccc54)cc2)c3-c2ccc(C(C)(C)C)cc2)cc1` displayed a photoluminescence quantum yield (in C1CCOC1) of 0.164.

As to `Cc1c(C)n2c(COC(=O)c3ccccc3O)c(C)c(=O)n2c1=O`, the photoluminescence quantum yield (in CCO) is 0.641.

`CN1C(=CC=Cc2nc3nc4ccccc4nc3s2)C(C)(C)c2ccccc21` gave a photoluminescence quantum yield (in CCO) of 0.75.

Where the note is “in ClCCl”, `COc1ccc(-c2c3ccccc3c(C#Cc3ccccc3)c3cc4cc(C)sc4cc23)cc1` came in with a photoluminescence quantum yield of 0.73.

`CN(C)c1[se]c(-c2ccccc2)nc1-c1ccccc1` had a photoluminescence quantum yield (in ClC(Cl)Cl) of 0.029.

Regarding `COc1ccc(N(c2ccc(/C=C(\C)c3ccccc3)cc2)c2ccc(/C=C(\C)c3ccccc3)cc2)cc1`, under “in Cc1ccccc1”, the photoluminescence quantum yield came out at 0.48.

Regarding `COCCOCCOCCOCC(COCCOCCOCCOC)Oc1cc(/C=C/c2ccc(/C=C(\C#N)c3ccccc3)cc2)c(OC(COCCOCCOCCOC)COCCOCCOCCOC)cc1/C=C/c1ccc(/C=C(\C#N)c2ccccc2)cc1`, where the note is “in ClCCl”, the photoluminescence quantum yield stood at 0.72.

In turn, `c1ccc(C2=C(c3ccccc3)c3cccc4c3c(cc3nc5ccccc5nc34)O2)cc1` displayed a photoluminescence quantum yield (in ClCCl) of 0.54.

As for `Cc1cc(C)c(B(c2c(C)cc(C)cc2C)c2c(C)cc(-n3c4ccc(N(c5ccccc5)c5ccccc5)cc4c4cc(N(c5ccccc5)c5ccccc5)ccc43)cc2C)c(C)c1`, the photoluminescence quantum yield by setting is: (in Cc1ccccc1) 0.84; under setting [1], 1.

The molecule `CC(=O)c1c2c(c(C(C)=O)c3c1OC(CC(=O)O)O3)OCO2` displayed a photoluminescence quantum yield (in CC#N) of 0.43.

In the case of `CCOC(=O)COc1ccc(/C=C/C2=C3c4ccccc4C(c4[nH]c(C)cc4C)=[N+]3[B-](F)(F)n3c(/C=C/c4ccc(OCC(=O)OCC)cc4)cc(C)c32)cc1`, the photoluminescence quantum yield turned out to be 0.05 (in C1CCOC1); 0.009 (in CC#N); 0.04 (in CCCCCC); 0.002 (in CO); 0.009 (in Cc1ccccc1); 0.012 (in ClCCl).

`CCC[Si](CCC)(CCC)c1cc2ccc3cccc4ccc(c1C(=O)NC(C)(C)C)c2c34` gave a photoluminescence quantum yield (in ClC(Cl)Cl) of 0.161.

`CC(C)(C)c1cc(C(C)(C)C)c2oc3c(c2c1)C=CN1C(=O)C2=C4c5oc6c(C(C)(C)C)cc(C(C)(C)C)cc6c5C=CN4C(=O)C2=C31`: the photoluminescence quantum yield by setting is: (in CN(C)C=O) 0.6; (in ClC(Cl)Cl) 0.99.

Take `CCN(CC)c1ccc(/C=C/C2=[O+][B-](F)(F)Oc3c2c(=O)oc2cc(N(CC)CC)ccc32)cc1`: the photoluminescence quantum yield runs as follows: (in C1CCCCC1) 0.46; (in C1COCCO1) 0.72; (in CC#N) 0.011; (in CC(C)=O) 0.021; (in CCO) 0.044; (in CCOC(C)=O) 0.16. The photoluminescence quantum yield was 0.016 (in CO); 0.035 (in CS(C)=O); 0.93 (in Cc1ccccc1); 0.75 (in ClC(Cl)Cl); 0.16 (in ClCCl); 0.36 (in OCC(O)CO). For the same molecule, the photoluminescence quantum yield (in OCCO) came out at 0.072.

Take `COc1ccc(/C=C/c2nc3c4ccccc4c4ccccc4c3o2)cc1`: for the setting “in CC#N”, the photoluminescence quantum yield is 0.35.

The molecule `CC1(C)c2ccccc2-n2c(-c3ccc(N4c5ccccc5Sc5ccccc54)cc3)nc3cccc1c32` displayed a photoluminescence quantum yield (in Cc1ccccc1) of 0.08 and a photoluminescence quantum yield under setting [1] of 0.05.

As to `COC(=O)c1ccc(Oc2ccc3c4c(cccc24)C(=O)N(c2c(C(C)C)cccc2C(C)C)C3=O)cc1`, the photoluminescence quantum yield (in ClCCl) is 0.55.

Regarding `C(=C\c1cnccn1)/c1ccc2nccnc2c1`, the photoluminescence quantum yield was determined as 0.001 (in CCCCCC); 0.09 (in CCO); 0.12 (in CO); 0.04 (in ClCCl); 0.02 (in c1ccccc1).

For the molecule `Cc1cc(C)c([B-]2(c3c(C)cc(C)cc3C)[O+]=P(c3ccccc3)(c3ccccc3)c3ccsc3-c3sccc32)c(C)c1`, the photoluminescence quantum yield (in C1CCOC1) was 0.23.

For the molecule `O=c1[nH]c(=O)n([C@@H]2O[C@H](CO)[C@@H](O)[C@H]2O)cc1-c1cc2ccccc2s1`, the photoluminescence quantum yield was found to be 0.06 (in C1COCCO1), 0.034 (in CC#N), 0.047 (in CO) and 0.035 (in O).

As to `O=C(O)CCCOc1cc2ccc3cccc4ccc(c1)c2c34`, the photoluminescence quantum yield (in CO) turned out to be 0.77.

Turning to `c1ccc2c(c1)CCc1ccccc1N2`, the photoluminescence quantum yield (in CC#N) was 0.2, the photoluminescence quantum yield (in CCCCCC) turned out to be 0.13 and the photoluminescence quantum yield (in CO) came out at 0.131.

Turning to `Fc1c(-c2nnc(-c3ccccc3)o2)c(-n2c3ccccc3c3ccccc32)c(F)c(-n2c3ccccc3c3ccccc32)c1-n1c2ccccc2c2ccccc21`, where the note is “in Cc1ccccc1”, the photoluminescence quantum yield was 0.2.

As for `Fc1ccc(C2=C(c3ccc(F)cc3)c3cccc4c3c(cc3nc5ccccc5nc34)O2)cc1`, for the setting “in ClCCl”, the photoluminescence quantum yield amounted to 0.35.

Regarding `COc1ccc(C2=Cc3c4ccccc4cc[n+]3[B-](F)(F)O2)cc1`, the photoluminescence quantum yield (in ClC(Cl)Cl) was 0.313.

`CCCCn1c2ccc(C#Cc3cccs3)cc2c2c1c1c3ccc(C#Cc4cccs4)cc3n(CCCC)c1c1c3ccc(C#Cc4cccs4)cc3n(CCCC)c21`: the photoluminescence quantum yield (in C1CCOC1) was 0.39.

`CN(C)c1ccc(/C=C/c2nc(/C=C/c3ccc(N(C)C)cc3)c3ccccc3n2)cc1` had a photoluminescence quantum yield (in ClCCl) of 0.02.

For `c1cc2c3c(c1)-c1cccc4ccn(c14)B3n1ccc3cccc-2c31`, the photoluminescence quantum yield (in C1CCOC1) came out at 0.65.

Regarding `CC(C)(C)c1ccc2c(c1)c1cc(C(C)(C)C)ccc1n2-c1cc(C(=O)c2ccncc2)cc(-n2c3ccc(C(C)(C)C)cc3c3cc(C(C)(C)C)ccc32)c1`, the photoluminescence quantum yield (in Cc1ccccc1) was 0.075 and the photoluminescence quantum yield (in c1cc(-c2cccc(-n3c4ccccc4c4ccccc43)c2)cc(-n2c3ccccc3c3ccccc32)c1) was determined as 0.97.

Consider `CC(C)c1cc(C(C)C)c(B2c3ccccc3Oc3cc(-n4c5ccccc5c5ccc6c(c7ccccc7n6-c6ccccc6)c54)ccc32)c(C(C)C)c1`, for which the photoluminescence quantum yield reads like this: (in CC(C)c1cc(C(C)C)c(-c2ccc(-n3c4ccccc4n4c5ccccc5nc34)nc2)c(C(C)C)c1) 0.506; under setting [1], 0.631.

In turn, `Nc1cc2oc3cc(O)c(F)cc3c(=O)c2cc1F` gave a photoluminescence quantum yield (in CCO) of 0.44.

Regarding `F[B-]1(F)n2c(/C=C/c3ccc(C(=C(c4ccccc4)c4ccccc4)c4ccccc4)cc3)ccc2C(c2ccc(C(=C(c3ccccc3)c3ccccc3)c3ccccc3)cc2)=C2C=CC(/C=C/c3ccc(C(=C(c4ccccc4)c4ccccc4)c4ccccc4)cc3)=[N+]21`, the photoluminescence quantum yield (in C1CCOC1) stood at 0.503.

Where the note is “in ClCCl”, `CN(C)c1ccc(/C=C/c2cc(/C=C/c3ccc(N(C)C)cc3)nc(/C=C/c3ccc(N(C)C)cc3)n2)cc1` showed a photoluminescence quantum yield of 0.22.

The molecule `COc1ccc(-c2c(OC)ccc3nnn(C[C@H](N)C(=O)O)c23)cc1` returned a photoluminescence quantum yield (in CO) of 0.09.

As for `COc1ccc(/C=C/c2cc(/C=C/c3ccc(OC)cc3)nc(/C=C/c3ccc(N(c4ccccc4)c4ccccc4)cc3)n2)cc1`, where the note is “in ClCCl”, the photoluminescence quantum yield is 0.1.

For `C=Cc1ccc(-c2ccc(-c3nnc(-c4ccc(-c5nnc(-c6ccc(-c7ccc(C=C)cc7)s6)o5)cc4)o3)s2)cc1`, for the setting “in ClC(Cl)Cl”, the photoluminescence quantum yield was 0.62.

On to `COc1ccc(-c2cc3ccc4cc(-c5ccc(OC)cc5)cc5ccc(c2)c3c45)cc1`, for which the photoluminescence quantum yield by setting is: (in C1CCCCC1) 0.08; (in C1CCOC1) 0.17; (in CC#N) 0.13; (in CCCCCC) 0.04; (in CCO) 0.12; (in CN(C)C=O) 0.34. Also, the photoluminescence quantum yield is 0.09 (in CO), 0.09 (in Cc1ccccc1), 0.04 (in ClC(Cl)Cl) and 0.09 (in ClCCl).

As to `C(#Cc1nc2ccccc2s1)c1ccc(N(c2ccc(C#Cc3nc4ccccc4s3)cc2)c2ccc(C#Cc3nc4ccccc4s3)cc2)cc1`, the photoluminescence quantum yield (in Cc1ccccc1) came out at 0.8.

Take `COc1ccc2cc([C@H](C)C(=O)O)ccc2c1`: the photoluminescence quantum yield was determined as 0.45 (in C1CCOC1); 0.31 (in CC#N); 0.23 (in CC(C)O); 0.17 (in CCCCO); 0.18 (in CCO); 0.18 (in CO). Moreover, the photoluminescence quantum yield stood at 0.32 (in ClCCl) and 0.41 (in O).
